According to US20210187014A1 (The Regents of the University of Colorado, a body corporate, priority 2018, published 2021):

What was measured:
[1] = target: T1, ATP-1 (Caenorhabditis elegans, UniProt Q9XXK1); assay: Biotin-Ent binding to ATP-1 (in vivo pulldown and in vitro binding assay); design: species or system C. elegans; details: excess non-biotin labeled Ent
T1 construct: His; made in house; host or cells: E. coli (given only for the three ATP-1 segments)
Description: First, in an in vivo assay, worms were fed bacteria +/− Biotin-Ent and total protein extracts were isolated, followed by streptavidin-bead purification and SDS-PAGE. […] Just as the iron-free Biotin-Ent, iron-bound Biotin-Ent also bound the ATP-1 protein (FIG. 10B, C).
In vivo binding assay: Worms were allowed to grow with Ent-biotin (5 ug/ml) dietary supplementation, followed by streptavidin-bead IP. Western blot was performed to detect ATP-1, using an antibody against the mammalian ATP synthase a-subunit (Thermo Fisher 43-9800).
In vitro binding assay. (a) Ent-biotin pull-down of total proteins: Ent-biotin and streptavidin beads were used to pull down interacting proteins from worm total protein extracts (same method as that in initial screen for Ent-binding proteins). Western blots were performed to detect ATP-1 (Thermo Fisher 43-9800). […] The assay was then quenched with a standard 5×SDS-PAGE_loading buffer (reducing). Proteins were separated by SDS-PAGE and transferred to_nitrocellulose membranes. The membranes were blocked for 1 h with 5% BSA in Trisbuffered saline (TBS) with 0.1% Tween 20 (TBST) at room temperature, followed by incubation for 1 h with horseradish peroxidase streptavidin (Cell Signaling_Technology,3999S) in TBST. […] After IP, the amount of 55Fe was determined by liquid scintillation.

[2] = system: MEL cells; assay: Erythroid differentiation of MEL cells (color change of cell pellets); format: cell-based, murine; details: equimolar supplementation
Description: FIG. 27. Ferric Enterobactin supplementation benefits differentiation of erythroid progenitor cells (MEL) to red blood cells. (FIG. 27A) MEL cells were grown with the indicated treatments. Cell pellets are shown. (FIG. 27B) Quantification of MEL color change presented as the average intensity of each cell pellet, normalized to the intensity of the control. Error bars are the standard deviation of three technical replicates.
MEL cells are murine erythroid progenitor cells that are arrested at the proerythroblast stage. In the laboratory, these cells are induced to undergo erythroid differentiation to red blood cells by addition of various chemicals (e.g. 2% DMSO) (Friend, 1971). Erythroid differentiation is an iron-dependent process that results in a color change in the differentiated cells. The present inventors tested if addition of Fe-Ent would positively impact the differentiation of wild-type MEL cells to red blood cells.

[3] = system: whole worm lysates; assay: Affinity chromatography with immobilized Ent and mass spectrometry to identify Ent-binding proteins; design: species or system C. elegans; details: two independent experiments
Description: CTL-2 is a homolog of catalases that are known to bind iron. ATP-1 is the a-subunit of the mitochondrial ATP synthase that is not known for a role in iron biology (Junge and Nelson, 2015).
Isolation of Enterobactin-binding proteins by biotin-IP and LC-MS. Total proteins were extracted from mixed stage worms and then pre-cleaned three times by adding 100 ul Dynabeads® M-280 Streptavidin. Equal volumes of these total protein extracts were then separated to two tubes. Biotin-Ent (5 ug) was added into one tube for IP and Biotin alone (5 ug) was added to another tube as the control, both were incubated overnight at 4° C. After incubating with Dynabeads® M-280 Streptavidin for 2 hours, the beads were washed at least 3 times by 1mL PBS. PBS was then removed from the beads and 200 uL 0.1 M ammonium bicarbonate (ABC)/0.001% deoxycholic acid (DCA) was added. The samples were reduced using 5 mM (final) TCEP at 60° C. for 30 min and alkylated using 15 mM iodoacetamide at room temperature for 20 min. 0.5 ug of trypsin was added to each sample and incubated overnight. The samples were then acidified using 7 uL of formic acid. DCA was removed from the samples by phasetransfer using ethyl acetate. The samples were desalted using a Pierce C18 spin column, and dried using a speed vac. […]

[4] = system: succinate dehydrogenase; assay: Succinate dehydrogenase enzymatic activity in worms +/- Ent; format: in vivo, C. elegans; details: worms fed Ent-deficient food
Description: Enzymatic activity. Succinate Dehydrogenase (MAK197; Sigma) and aconitase (MAK051; Sigma) enzymatic activity were measured using the kits according to the manufacturer's protocol. […] After 48 hours culturing, worms were lysed in ice-cold conditions using the lysis buffer provided in the kit, supplemented with […]. Equal amounts of protein were used for the enzymatic activity assay.

[5] = system: liposomes; assay: Iron traffic across the lipid bilayer of synthetic liposomes +/- ATPSα; format: biochemical
Description: ATPSα (ATP-1 or ATP5A1) was added to the liposome by an established method. […] The Calcein AM dye was added to liposomes +/− ATPSα and the fluorescence intensity of the liposome was measured; (B) Liposomes were incubated with radiolabel ed Fe^3+ (''FeCl3) and the radioactivity (relative CPM) of the liposome was measured. Method (A) measures iron inside the liposome, since calcein AM is only inside.

T1 sequence (Q9XXK1 whole entry): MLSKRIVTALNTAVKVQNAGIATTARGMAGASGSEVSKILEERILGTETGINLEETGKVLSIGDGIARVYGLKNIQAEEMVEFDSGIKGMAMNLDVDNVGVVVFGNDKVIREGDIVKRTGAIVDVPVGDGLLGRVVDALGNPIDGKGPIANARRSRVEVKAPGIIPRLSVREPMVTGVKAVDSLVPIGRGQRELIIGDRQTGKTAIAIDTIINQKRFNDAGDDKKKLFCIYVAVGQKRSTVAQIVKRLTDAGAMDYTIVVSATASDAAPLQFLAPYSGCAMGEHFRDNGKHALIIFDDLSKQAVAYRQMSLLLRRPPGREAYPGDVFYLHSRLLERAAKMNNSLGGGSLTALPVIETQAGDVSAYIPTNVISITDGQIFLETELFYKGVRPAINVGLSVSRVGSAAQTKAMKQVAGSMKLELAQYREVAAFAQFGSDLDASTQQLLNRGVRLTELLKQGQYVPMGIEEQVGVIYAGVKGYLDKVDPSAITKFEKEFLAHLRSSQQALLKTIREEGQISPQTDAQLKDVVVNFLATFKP

O=C(N[C@H]1COC(=O)[C@@H](NC(=O)c2cccc(O)c2O)COC(=O)[C@@H](NC(=O)c2cccc(O)c2O)COC1=O)c1cccc(O)c1O [Ent, enterobactin]
competition of Biotin-Ent binding to ATP-1-His [1]: outcompeted
MEL differentiation to red blood cells [2]: decrease in differentiation
candidate Ent-binding proteins captured [3]: CTL-2 and ATP-1
activity of succinate dehydrogenase [4]: significantly increased
level of iron inside the liposome (Calcein AM) ([5]; FeCl3 +/- Ent 1.5 uM): clearly boosted
level of iron associated with the liposome (radioactivity) ([5]; radiolabeled FeCl3 +/- Ent 1.5 uM): clearly boosted
